Drawing on US11427548B2 (Arvinas Operations, Inc., priority 2015, dated 2022), this text covers Dmax and DC50 for eleven compounds.

Like-named read-outs stand apart in the source and are kept apart here.

The test addresses T1, Androgen Receptor (Homo sapiens, UniProt P10275).
T1 construct: endogenous in cells; host or cells: VCaP cells
T1 sequence (P10275 1-920): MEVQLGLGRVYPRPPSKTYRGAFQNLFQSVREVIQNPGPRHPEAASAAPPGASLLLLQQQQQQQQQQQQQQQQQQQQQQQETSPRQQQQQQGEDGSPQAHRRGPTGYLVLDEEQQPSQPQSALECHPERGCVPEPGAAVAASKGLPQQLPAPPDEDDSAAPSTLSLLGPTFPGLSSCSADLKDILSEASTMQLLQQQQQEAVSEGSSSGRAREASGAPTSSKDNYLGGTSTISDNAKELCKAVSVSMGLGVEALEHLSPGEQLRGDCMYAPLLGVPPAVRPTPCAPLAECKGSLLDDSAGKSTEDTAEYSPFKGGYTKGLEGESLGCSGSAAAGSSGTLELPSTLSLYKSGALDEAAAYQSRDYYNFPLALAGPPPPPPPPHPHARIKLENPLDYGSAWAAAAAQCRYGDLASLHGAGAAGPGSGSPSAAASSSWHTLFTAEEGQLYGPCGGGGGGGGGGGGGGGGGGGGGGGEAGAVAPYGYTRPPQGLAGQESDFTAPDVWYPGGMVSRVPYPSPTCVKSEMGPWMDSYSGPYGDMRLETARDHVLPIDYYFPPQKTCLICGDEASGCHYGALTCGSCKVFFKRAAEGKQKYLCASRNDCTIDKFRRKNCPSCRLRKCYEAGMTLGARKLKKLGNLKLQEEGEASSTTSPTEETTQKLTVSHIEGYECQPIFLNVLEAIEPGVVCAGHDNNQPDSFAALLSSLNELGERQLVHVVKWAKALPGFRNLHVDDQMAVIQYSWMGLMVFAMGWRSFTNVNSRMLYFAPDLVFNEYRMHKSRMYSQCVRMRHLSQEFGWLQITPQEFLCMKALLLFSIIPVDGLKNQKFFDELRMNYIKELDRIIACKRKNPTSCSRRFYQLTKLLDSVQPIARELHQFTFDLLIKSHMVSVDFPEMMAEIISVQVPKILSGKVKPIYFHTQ
In words: Androgen Receptor ELISA assay (PathScan AR ELISA) in VCaP cells: AR degradation, Dmax and DC50. Type of test: cell-based. The method in brief: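 VCaP cells in phenol red-free RPMI with 5% charcoal-stripped FBS were grown at least 3 days, then given compound as 7 half-log doses in 0.1% DMSO with 0.1 nM R1881 for 24 h. Lysates went into a sandwich AR ELISA with TMB read at 450 nm.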
On the technique in general: In an ELISA, binding on a coated surface is turned into a signal by an enzyme label.

Where [1] appears, read: read-out: VCaP DC50; concentration that caused 50% Androgen Receptor degradation, VCaP cells (Table 32).
[2] abbreviates: VCaP, highest percentage of Androgen Receptor degradation observed, VCaP cells (Table 32); read-out: VCaP Dmax (%).
[3] abbreviates: concentration that caused 50% Androgen Receptor degradation, VCaP cells (Table 32); read-out: VCaP DC50.

As a reminder, the Dmax is the greatest extent of degradation seen. Usually DC50 stands for the midpoint of the concentration-degradation curve. Take `Cc1ncoc1-c1ccc([C@H](C)NC(=O)[C@@H]2C[C@@H](O)CN2C(=O)[C@@H](NC(=O)COCCCCOc2ccc(-c3ccc(N4C(=S)N(c5ccc(C#N)c(C(F)(F)F)c5)C(=O)C4(C)C)c(F)c3)cc2)C(C)(C)C)cc1` [Example 138, (2S,4R)-1-[(2S)-2-(2-{4-[4-(4-{3-[4-cyano-3-(trifluoromethyl)phenyl]-5,5-dimethyl-4-oxo-2-sulfanylideneimidazolidin-1-yl}-3-fluorophenyl)phen-oxy]butoxy}acetamido)-3,3-dimethylbutanoyl]-4-hydroxy-N-[(1S)-1-[4-(4-methyl-1,3-oxazol-5-yl)phenyl]ethyl]pyrrolidine-2-carboxamide]: the greatest degradation seen (Dmax) (VCaP, read-out: VCaP Dmax (%)) was greater than 71%. Besides, the DC50 under setting [1] is less than 50 nM.

`COc1cc(-c2ccc(N3C(=S)N(c4ccc(C#N)c(C(F)(F)F)c4)C(=O)C3(C)C)cc2)ccc1OCCCCOCC(=O)N[C@H](C(=O)N1C[C@H](O)C[C@H]1C(=O)NCc1ccc(-c2scnc2C)cc1)C(C)(C)C` [Example 139, (2S,4R)-1-[(2S)-2-(2-{4-[4-(4-{3-[4-cyano-3-(trifluoromethyl)phenyl]-5,5-dimethyl-4-oxo-2-sulfanylideneimidazolidin-1-yl}phenyl)-2-methoxyphenoxy]butoxy}acetamido)-3,3-dimethylbutanoyl]-4-hydroxy-N-{[4-(4-methyl-1,3-thiazol-5-yl)phenyl]methyl}pyrrolidine-2-carboxamide]: the Dmax (VCaP, read-out: VCaP Dmax (%)) was greater than 71%. Under setting [1], the DC50 is less than 50 nM.

Turning to `COc1cc(OCCCCOCC(=O)N[C@H](C(=O)N2C[C@H](O)C[C@H]2C(=O)NCc2ccc(-c3scnc3C)cc2)C(C)(C)C)ccc1-c1ccc(N2C(=S)N(c3ccc(C#N)c(C(F)(F)F)c3)C(=O)C2(C)C)cc1` [Example 140, (2S,4R)-1-[(2S)-2-(2-{4-[4-(4-{3-[4-cyano-3-(trifluoromethyl)phenyl]-5,5-dimethyl-4-oxo-2-sulfanylideneimidazolidin-1-yl}phenyl)-3-methoxyphenoxy]butoxy}acetamido)-3,3-dimethylbutanoyl]-4-hydroxy-N-{[4-(4-methyl-1,3-thiazol-5-yl)phenyl]methyl}pyrrolidine-2-carboxamide], the Dmax (VCaP, read-out: VCaP Dmax (%)) is greater than 71%. Further, the DC50 under setting [1] was less than 50 nM.

Regarding `Cc1ncsc1-c1ccc(CNC(=O)[C@@H]2C[C@@H](O)CN2C(=O)[C@@H](NC(=O)COCCC[C@@H](C)Oc2ccc(-c3ccc(N4C(=S)N(c5ccc(C#N)c(C(F)(F)F)c5)C(=O)C4(C)C)cc3)cc2)C(C)(C)C)cc1` [Example 141, (2S,4R)-1-[(2S)-2-(2-{[(4S)-4-[4-(4-{3-[4-cyano-3-(trifluoromethyl)phenyl]-5,5-dimethyl-4-oxo-2-sulfanylideneimidazolidin-1-yl}phenyl)phen-oxy]pentyl]oxy}acetamido)-3,3-dimethylbutanoyl]-4-hydroxy-N-{[4-(4-methyl-1,3-thiazol-5-yl)phenyl]methyl}pyrrolidine-2-carboxamide], for the setting “VCaP, read-out: VCaP Dmax (%)”, the Dmax is greater than 71%. Moreover, the DC50 under setting [1] was less than 50 nM.

`Cc1ncsc1-c1ccc(CNC(=O)[C@@H]2C[C@@H](O)CN2C(=O)[C@@H](NC(=O)COCCC[C@H](C)Oc2ccc(-c3ccc(N4C(=S)N(c5ccc(C#N)c(C(F)(F)F)c5)C(=O)C4(C)C)cc3)cc2)C(C)(C)C)cc1` [Example 142, (2S,4R)-1-[(2S)-2-(2-{[(4R)-4-[4-(4-{3-[4-cyano-3-(trifluoromethyl)phenyl]-5,5-dimethyl-4-oxo-2-sulfanylideneimidazolidin-1-yl}phenyl)phen-oxy]pentyl]oxy}acetamido)-3,3-dimethylbutanoyl]-4-hydroxy-N-{[4-(4-methyl-1,3-thiazol-5-yl)phenyl]methyl}pyrrolidine-2-carboxamide]: the Dmax (VCaP, read-out: VCaP Dmax (%)) was greater than 71%. Further, the DC50 under setting [1] is less than 50 nM.

For the compound `Cc1ncsc1-c1ccc([C@H](C)NC(=O)[C@@H]2C[C@@H](O)CN2C(=O)[C@@H](NC(=O)COCCCCNc2ccc(-c3ccc(N4C(=S)N(c5ccc(C#N)c(C(F)(F)F)c5)C(=O)C4(C)C)cc3)cc2)C(C)(C)C)cc1` [Example 145, (2S,4R)-1-[(2S)-2-[2-(4-{[4-(4-{3-[4-cyano-3-(trifluoromethyl)phenyl]-5,5-dimethyl-4-oxo-2-sulfanylideneimidazolidin-1-yl}phenyl)phen-yl]amino}butoxy)acetamido]-3,3-dimethylbutanoyl]-4-hydroxy-N-[(1S)-1-[4-(4-methyl-1,3-thiazol-5-yl)phenyl]ethyl]pyrrolidine-2-carboxamide], the Dmax (VCaP, read-out: VCaP Dmax (%)) is greater than 71%. The DC50 under setting [1] is less than 50 nM.

Take `Cc1ncsc1-c1ccc(CNC(=O)[C@@H]2C[C@@H](O)CN2C(=O)[C@@H](NC(=O)COCCCCOc2ccc(-c3ccc(N4C(=S)N(c5ccc(C#N)c(C(F)(F)F)c5)C(=O)C4(C)C)cc3)c(F)c2)C(C)(C)C)cc1` [Example 149, (2S,4R)-1-[(2S)-2-(2-{4-[4-(4-{3-[4-cyano-3-(trifluoromethyl)phenyl]-5,5-dimethyl-4-oxo-2-sulfanylideneimidazolidin-1-yl}phenyl)-3-fluorophenoxy]butoxy}acetamido)-3,3-dimethylbutanoyl]-4-hydroxy-N-{[4-(4-methyl-1,3-thiazol-5-yl)phenyl]methyl}pyrrolidine-2-carboxamide]: for the setting “VCaP, read-out: VCaP Dmax (%)”, the Dmax is greater than 71%. In addition, the DC50 under setting [1] is less than 50 nM.

On to `Cc1ncsc1-c1ccc(CNC(=O)[C@@H]2C[C@@H](O)CN2C(=O)[C@@H](NC(=O)COCCCCCOc2ccc(C(=O)N[C@H]3C(C)(C)[C@H](Oc4ccc(C#N)c(Cl)c4)C3(C)C)cc2)C(C)(C)C)cc1` [Example 151, (2S,4R)-1-[(2S)-3,3-dimethyl-2-(2-{[5-(4-{[trans-3-(3-chloro-4-cyanophenoxy)-2,2,4,4-tetramethylcyclobutyl]carbamoyl}phen-oxy)pentyl]oxy}acetamido)butanoyl]-4-hydroxy-N-{[4-(4-methyl-1,3-thiazol-5-yl)phenyl]methyl}pyrrolidine-2-carboxamide], for which, under setting [2], the Dmax was greater than 71%. Moreover, the DC50 under setting [3] is less than 50 nM.

`Cc1ncoc1-c1ccc(CNC(=O)[C@@H]2C[C@@H](O)CN2C(=O)[C@@H](NC(=O)COCCCCCOc2ccc(C(=O)NC3C(C)(C)C(Oc4ccc(C#N)c(Cl)c4)C3(C)C)cc2)C(C)(C)C)cc1` (stereo partly drawn) [Example 152, (2S,4R)-1-[(2S)-3,3-dimethyl-2-(2-{[5-(4-{[trans-3-(3-chloro-4-cyanophenoxy)-2,2,4,4-tetramethylcyclobutyl]carbamoyl}phen-oxy)pentyl]oxy}acetamido)butanoyl]-4-hydroxy-N-{[4-(4-methyl-1,3-oxazol-5-yl)phenyl]methyl}pyrrolidine-2-carboxamide]: under setting [2], the maximal degradation (Dmax) is greater than 71%. Also, under setting [3], the half-maximal degradation concentration (DC50) was less than 50 nM.

In the case of `CC(C)(C)[C@H](NC(=O)COCCCCCOc1ccc(C(=O)N[C@H]2C(C)(C)[C@H](Oc3ccc(C#N)c(Cl)c3)C2(C)C)cc1)C(=O)N1C[C@H](O)C[C@H]1C(=O)NCc1ccc(-c2cnco2)cc1` [Example 153, (2S,4R)-1-[(2S)-3,3-dimethyl-2-(2-{[5-(4-{[trans-3-(3-chloro-4-cyanophenoxy)-2,2,4,4-tetramethylcyclobutyl]carbamoyl}phen-oxy)pentyl]oxy}acetamido)butanoyl]-4-hydroxy-N-{[4-(1,3-oxazol-5-yl)phenyl]methyl}pyrrolidine-2-carboxamide], the greatest degradation seen (Dmax) under setting [2] is greater than 71%. Besides, the DC50 under setting [3] is less than 50 nM.

Turning to `Cc1ncoc1-c1ccc(CNC(=O)[C@@H]2C[C@@H](O)CN2C(=O)[C@@H](NC(=O)COCCCCCOc2ccc(C(=O)N[C@H]3C(C)(C)[C@H](Oc4ccc(C#N)c(C(F)(F)F)c4)C3(C)C)cc2)C(C)(C)C)cc1` [Example 154, (2S,4R)-1-[(2S)-3,3-dimethyl-2-(2-{[5-(4-{[trans--3-[4-cyano-3-(trifluoromethyl)phenoxy]-2,2,4,4-tetramethylcyclobutyl]carbamoyl}phen-oxy)pentyl]oxy}acetamido)butanoyl]-4-hydroxy-N-{[4-(4-methyl-1,3-oxazol-5-yl)phenyl]methyl}pyrrolidine-2-carboxamide], the greatest degradation seen (Dmax) under setting [2] is greater than 71%. Further, under setting [3], the DC50 was less than 50 nM.
